Patent publication US8536336B2, “Prodrug compounds useful as cannabinoid ligands” (AbbVie Inc., priority 2009, dated 2013)
≈ marks a conversion by molar mass, not a printed value.

Key:
[1] = Solubility of prodrug in water or 0.1 N aqueous HCl (HPLC of filtrate); conditions: thermodynamic from solid
Procedure: (§1) Approximately 3 mg of prodrug was weighed into a vial and 750 μL of water or 0.1 N aqueous HCl was added. The mixtures were vortexed to wet the solids. The mixtures were equilibrated for 1 hour with gentle agitation in a constant temperature water bath (T=25° C. for water samples and T=37° C. for 0.1 N HCl samples). After equilibration, the mixtures were visually inspected to assure that the amount of excess solid was sufficient to permit re-characterization. If not, solubility was reported as greater than the weighed concentration of prodrug (concentrations were confirmed by HPLC). The solid phase was then separated from the liquid phase by filtration through a 13 mm 0.45 μm GHP syringe filter (Pall Corporation). The filtrate was diluted as needed for quantification of the material studied by HPLC, and the concentration of the filtrate was reported as the solubility of the prodrug in the given medium.

[2] = In vivo regeneration of the parent compound after oral dosing of prodrug (plasma, HPLC-MS/MS); set-up: species or system Sprague-Dawley rats; conditions: rat, oral aqueous formulation by gavage, blood samples for 24 hours
Procedure: Male Sprague-Dawley rats, weighing 250-400 g, were obtained from Charles Rivers Laboratories. For the initial screening, each prodrug was evaluated in one group of three rats. All rats received an oral aqueous formulation (suspension or solution), administered by gavage. Sequential blood samples were obtained from a tail vein of each animal for 24 hours after dosing. Plasma was separated by centrifugation and stored frozen until analysis. Compounds were selectively removed from the plasma using protein precipitation followed by reverse phase HPLC with MS/MS detection for quantitation. Attempts were made to measure both the prodrug and the parent compounds in each sample.

physchem = conditions: thermodynamic from solid
Procedure: as §1

[3] = 0.1 N aqueous HCl, 37 °C, simulated gastric fluid

## CCCCn1/c(=N/C(=O)c2cc(C(F)(F)F)ccc2OC[C@H](C)OP(=O)(O)O)sc2ccncc21 [Example 9, (1S)-2-[2-({[(2Z)-3-butyl[1,3]thiazolo[4,5-c]pyridin-2(3H)-ylidene]amino}carbonyl)-4-(trifluoromethyl)phenoxy]-1-methylethyl dihydrogen phosphate]
[1]; [3]
  solubility at 1 h: 7 µg/mL
[1]; water, 25 °C
  solubility at 1 h: 830 µg/mL

## CCCCn1/c(=N/C(=O)c2cc(C(F)(F)F)ccc2OC[C@H](C)OC(=O)NCCN(C)C)sc2ccncc21 [Example 15, (1S)-2-[2-({[(2Z)-3-butyl[1,3]thiazolo[4,5-c]pyridin-2(3H)-ylidene]amino}carbonyl)-4-(trifluoromethyl)phenoxy]-1-methylethyl 2-(dimethylamino)ethylcarbamate]
[2]
  Parent (Example 18) detected in plasma after dosing the prodrug: Measurable concentrations
  Prodrug detected in plasma after dosing the prodrug: Measurable concentrations
[1]; [3]
  solubility at 1 h: > 4000 µg/mL
[1]; water, 25 °C
  solubility at 1 h: 680 µg/mL (≈ 1200 µM)

## CCCCn1/c(=N/C(=O)c2cc(C(F)(F)F)ccc2OC[C@H](C)O)sc2cc[n+]([O-])cc21 [Example 12, N-[(2Z)-3-butyl-5-oxido[1,3]thiazolo[4,5-c]pyridin-2(3H)-ylidene]-2-{[(2S)-2-hydroxypropyl]oxy}-5-(trifluoromethyl)benzamide]
[2]
  Parent (Example 18) detected in plasma after dosing the prodrug: Measurable concentrations
  Prodrug detected in plasma after dosing the prodrug: Measurable concentrations

## CCCCn1/c(=N/C(=O)c2cc(C(F)(F)F)ccc2OC[C@H](C)O)sc2cc[n+](COC(=O)c3ccccc3)cc21.[Cl-] [Example 5, (2Z)-5-[(benzoyloxy)methyl]-3-butyl-2-{[2-{[(2S)-2-hydroxypropyl]oxy}-5-(trifluoromethyl)benzoyl]imino}-2,3-dihydro[1,3]thiazolo[4,5-c]pyridin-5-ium chloride]
[1]; [3]
  solubility at 1 h: 16 µg/mL
[1]; water, 25 °C
  solubility at 1 h: 740 µg/mL

## CCCCn1/c(=N/C(=O)c2cc(C(F)(F)F)ccc2OC[C@H](C)O)sc2cc[n+](COC(=O)N(C)C)cc21.[Cl-] [Example 8, (2Z)-3-butyl-5-({[(dimethylamino)carbonyl]oxy}methyl)-2-{[2-{[(2S)-2-hydroxypropyl]oxy}-5-(trifluoromethyl)benzoyl]imino}-2,3-dihydro[1,3]thiazolo[4,5-c]pyridin-5-ium chloride]
[1]; [3]
  solubility at 1 h: > 4000 µg/mL
[1]; water, 25 °C
  solubility at 1 h: 3900 µg/mL

## CCCCn1/c(=N/C(=O)c2cc(C(F)(F)F)ccc2OC[C@H](C)O)sc2cc[n+](COC(C)=O)cc21.[Br-] [Example 1, (2Z)-5-[(acetyloxy)methyl]-3-butyl-2-{[2-{[(2S)-2-hydroxypropyl]oxy}-5-(trifluoromethyl)benzoyl]imino}-2,3-dihydro[1,3]thiazolo[4,5-c]pyridin-5-ium bromide]
[1]; [3]
  solubility at 1 h: 2500 µg/mL
[1]; water, 25 °C
  solubility at 1 h: 1800 µg/mL

## CCCCn1/c(=N/C(=O)c2cc(C(F)(F)F)ccc2OC[C@H](C)OC(=O)C(C)(C)N)sc2ccncc21 [Example 2, (1S)-2-[2-({[(2Z)-3-butyl[1,3]thiazolo[4,5-c]pyridin-2(3H)-ylidene]amino}carbonyl)-4-(trifluoromethyl)phenoxy]-1-methylethyl 2-methylalaninate]
[1]; [3]
  solubility at 1 h: 4100 µg/mL (≈ 7610 µM)
[1]; water, 25 °C
  solubility at 1 h: 2300 µg/mL (≈ 4270 µM)

## CCCCn1/c(=N/C(=O)c2cc(C(F)(F)F)ccc2OC[C@H](C)OC(=O)CCC(=O)O)sc2ccncc21 [Example 14, 4-({(1S)-2-[2-({[(2Z)-3-butyl[1,3]thiazolo[4,5-c]pyridin-2(3H)-ylidene]amino}carbonyl)-4-(trifluoromethyl)phenoxy]-1-methylethyl}oxy)-4-oxobutanoic acid]
physchem; 25 °C, water
  solubility at 1 h: 73 µg/mL (≈ 132 µM)
physchem; 37 °C, simulated gastric fluid
  solubility at 1 h: 10 µg/mL (≈ 18.1 µM)

## CCCCn1/c(=N/C(=O)c2cc(C(F)(F)F)ccc2OC[C@H](C)OC(=O)[C@H](C)N)sc2ccncc21 [Example 6, (1S)-2-[2-({[(2Z)-3-butyl[1,3]thiazolo[4,5-c]pyridin-2(3H)-ylidene]amino}carbonyl)-4-(trifluoromethyl)phenoxy]-1-methylethyl L-alaninate]
[1]; [3]
  solubility at 1 h: > 4100 µg/mL
[1]; water, 25 °C
  solubility at 1 h: 2300 µg/mL (≈ 4380 µM)

## CCCCn1/c(=N/C(=O)c2cc(C(F)(F)F)ccc2OC[C@H](C)O)sc2cc[n+](COC(=O)N3CCC[C@H]3C(=O)OC)cc21.[Cl-] [Example 7, (2Z)-3-butyl-2-{[2-{[(2S)-2-hydroxypropyl]oxy}-5-(trifluoromethyl)benzoyl]imino}-5-[({[(2S)-2-(methoxycarbonyl)pyrrolidin-1-yl]carbonyl}oxy)methyl]-2,3-dihydro[1,3]thiazolo[4,5-c]pyridin-5-ium chloride]
[1]; [3]
  solubility at 1 h: > 4300 µg/mL
[1]; water, 25 °C
  solubility at 1 h: > 4300 µg/mL

## CCCCn1/c(=N/C(=O)c2cc(C(F)(F)F)ccc2OC[C@H](C)OC(=O)CN)sc2ccncc21 [Example 3, (1S)-2-[2-({[(2Z)-3-butyl[1,3]thiazolo[4,5-c]pyridin-2(3H)-ylidene]amino}carbonyl)-4-(trifluoromethyl)phenoxy]-1-methylethyl glycinate]
physchem; 25 °C, water
  solubility at 1 h: 1200 µg/mL (≈ 2350 µM)
physchem; 37 °C, simulated gastric fluid
  solubility at 1 h: > 4100 µg/mL

## CCCCn1/c(=N/C(=O)c2cc(C(F)(F)F)ccc2OC[C@H](C)O)sc2cc[n+](COC(=O)C(C)(C)C)cc21.[Cl-] [Example 4, (2Z)-3-butyl-5-{[(2,2-dimethylpropanoyl)oxy]methyl}-2-{[2-{[(2S)-2-hydroxypropyl]oxy}-5-(trifluoromethyl)benzoyl]imino}-2,3-dihydro[1,3]thiazolo[4,5-c]pyridin-5-ium chloride]
[1]; [3]
  solubility at 1 h: 200 µg/mL
[1]; water, 25 °C
  solubility at 1 h: 3300 µg/mL

## CCCCn1/c(=N/C(=O)c2cc(C(F)(F)F)ccc2OC[C@H](C)O)sc2ccncc21 [Example 18, N-[(2Z)-3-butyl[1,3]thiazolo[4,5-c]pyridin-2(3H)-ylidene]-2-{[(2S)-2-hydroxypropyl]oxy}-5-(trifluoromethyl)benzamide]
[1]; [3]
  solubility at 1 h: 4.3 µg/mL (≈ 9.48 µM)
[1]; water, 25 °C
  solubility at 1 h: < 0.02 µg/mL
